One compound from PMC11078746 (Nature, 2024) can be followed below.

Data set [1] can be described thus: In vitro unbound fraction. The class given is in vitro ADME.
Another data set relates to SNUC4. The data set can be described thus: CFA 10-14 day clonogenic assay. The class given is cell-based. To be noted: Homo sapiens, SNU-C4.
In another data set the test system is CL34. The data set can be described thus: CFA 10-14 day clonogenic assay. The data set is classed as cell-based. To be noted: Homo sapiens.
For a further data set, the system named is 2313287. The data set can be described thus: 4 day proliferation assay (CellTiter-Glo). To be noted: Homo sapiens, 96 h, read-out: 4 day assay GI50. (In ATP-based viability assays light output follows the ATP content of the culture.)

As usually defined, the fraction unbound is the share of the substance not bound to proteins or other matrix. High values mean weak binding, low ones extensive binding. As a reminder, the GI50 is the concentration that inhibits growth by half. `CCc1c(N2CCN(C(=O)c3ncnc(C)c3O)CC2)c(=O)n2nc(C3=CCOCC3)nc2n1CC(=O)Nc1ccc(C(F)(F)F)cc1Cl` [HRO761] registered a fraction unbound in data set [1] of 0.37. In addition, the GI50 with SNUC4 was 35 nM; with CL34 it was 39 nM; with 2313287 it was at least 10000 nM.
